Legend:
[1] = Preliminary patient trial: s.c./i.v. infusion versus intestinal Duodopa, plasma levodopa and carbidopa; assay type: in vivo, patients with Parkinson's disease
Source text: The trial results are from 3 randomly selected patients of a larger study, and for each patient subcutaneous, intravenous injection and intestinal administration was compared.
The study was a prospective, randomized, 3-period cross-over, open-label multicentre trial comparing intravenous and subcutaneous infusion of the preferred aqueous pharmaceutical solution with intestinal Duodopa (LCIG) performed according to the principles of Good Clinical Practice (GCP). The trial included patients with Parkinson's disease who are on Duodopa treatment because of severe on-off manifestation when on oral levodopa. During one treatment visit, patients receive Duodopa at optimal dosage for 16 hours, during another treatment visit, the patients received an i.v. infusion of the preferred aqueous pharmaceutical solution at a concentration estimated to yield corresponding serum levels of levodopa for the same duration, and at a third treatment visit the patients received the corresponding amount of levodopa but in the form of s.c. infusion. Blood samples were drawn according to a set schedule during the treatment visits for up to 24 h. […]
Levodopa and carbidopa in patient's plasma was analysed by ultra-performance liquid chromatography-tandem mass spectrometry (UPLC-MS/MS) according to the principles of Good Laboratory Practice (GLP).

[2] = cited from earlier work

levodopa concentration in the blood required for therapeutic effect ([1]; patient no 101, severe PD): 5,000-6,000 ng/mL | levodopa concentration in the blood required for therapeutic effect ([1]; patient no 103, moderate or mild PD): 1,600-1,700 ng/mL
Structure (SMILES): N[C@@H](Cc1ccc(O)c(O)c1)C(=O)O [levodopa]
concentration above which levodopa precipitates ([2]; pH values acceptable for continuous parenteral administration): 0.5 to 1.0 mg/mL | levodopa concentration obtainable ([2]; pH<3 or pH>9): exceeding 5 mg/ml

From patent publication US12048764B2, “Levodopa infusion solution” (DIZLIN PHARMACEUTICALS AB, priority 2017, dated 2024)
